{"source": "patent US20220153704A1", "about": "(priority 2019, published 2022)", "test": "DVS characterization of hygroscopicity and stability under different humidity", "assay_type": "physicochemical", "settings": "25° C.", "description": "The dynamic vapor sorption (DVS) graph was collected on DVS Intrinsic of SMS (Surface Measurement Systems). The relative humidity at 25° C. was corrected by the deliquescent point of LiCl, Mg(NO3)2 and KCl.\nIn order to evaluate the hygroscopicity and stability of anhydrous crystalline form E under different humidity conditions, DVS and XRPD tests were performed on crystalline form E samples at a constant temperature of 25° C.", "data": [{"compound": "CCN1C[C@]2(COC)CC[C@H](OC)[C@]34C5C[C@]6(O)[C@@H](OC)C[C@@](OC(C)=O)(C5[C@H]6OC(=O)c5ccc(OC)cc5)[C@H](C13)[C@H](OC)[C@H]24", "note": "(stereo partly drawn) [crystalline form E, (1α,6α,14α,16β)tetrahydro-8,13,14-triol-20-ethyl-1,6,16-trimethoxy-4-methoxymethyl-8-acetoxy-14-(4′-p-methoxybenzyl)-aconitane]", "values": [{"measurement": "crystalline form before and after the DVS test (XRPD)", "result": "did not change"}, {"measurement": "water adsorbed (DVS)", "setting": "humidity 80% RH", "result": 0.12, "unit": "%"}, {"measurement": "hygroscopicity", "setting": "DVS, up to 80% RH", "result": "no hygroscopicity"}]}]}
